Laboratory results: patent publication EP3928779A1 (Chugai Seiyaku Kabushiki Kaisha, priority 2014, dated 2016)

Legend:
[1] = system: adenine-induced renal failure rat; test: Suppressive effect on rise in serum phosphorus concentration of adenine-induced renal failure rat (0.1% in feed, 3 days); assay type: in vivo; details: feed or water, 72 h, adenine-induced renal failure Wistar male rat, test compound 0.1% of mass concentration in feed for 3 days, Fiske-Subbarow method, read-out: rate (%) of suppression of a rise in serum phosphorus concentration
From the text: Adenine was forcedly administered orally to each Wistar male rat (7-8 weeks old) to impair renal functions and thereby prepare a hyperphosphatemia model ([…], Nagano N, Burke SK, Fukushima N. Sevelamer hydrochloride prevents ectopic calcification and renal osteodystrophy in chronic renal failure rats. Kidney Int. 2003 Aug; 64 (2): 441-50). Each test compound was mixed at a ratio of 0.1% of mass concentration with feed. The animal was fed with a given amount of the feed for 3 days. A group given feed non-supplemented with a test compound was used as a reference pathological group, and an adenine-unadministered group given feed non-supplemented with a test compound was used as a normal group. 3 days after the start of administration of the test compound, blood was collected from the jugular vein, and serum was collected. Serum phosphorus concentrations were measured by the Fiske-Subbarow method. The rate of suppression of a rise in serum phosphorus concentration was determined according to the following expression: Rate (%) of suppression of a rise in serum phosphorus concentration = (1-[(Serum phosphorus concentration of the test compound-treated pathological group)-(Serum phosphorus concentration of the normal group)]/[(Serum phosphorus concentration of the reference pathological group)-(Serum phosphorus concentration of the normal group)]) × 100 [formula] As a result, each test compound was confirmed to have a suppressive effect on a rise in serum phosphorus concentration. […]

[2] = system: rat small-intestinal brush border membrane vesicles; test: Inhibitory effect on 33PO4 uptake into rat small-intestinal brush border membrane vesicles (rapid filtration method); assay type: biochemical; details: 33PO4 uptake into rat small-intestinal BBMVs; test compound 1 µM; reacted for 60 seconds
In short: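 Uptake of ^33PO4 was measured by rapid filtration and liquid scintillation counting of filter-retained vesicles, after quenching with ice-cold 110 mM NaCl/1 mM KH2PO4/10 mM HEPES pH 7.5. Vesicles were brush border membranes from the upper small intestine of female Wistar rats aged 4–5 weeks.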

Compound	inhibition in vivo at 0.1 % in feed [1]	Rate of uptake inhibition (%) (1 µM) [2]
C[C@]12CCCN1N(Cc1ccc(CN3CCOCC3)c(F)c1F)C(=O)C(C(=O)Nc1ccc(C(F)(F)F)cc1-c1ccc(C(F)(F)F)nc1)=C2O.Cl [Example 164, (4aR)-1-[[2,3-Difluoro-4-(morpholin-4-ylmethyl)phenyl]methyl]-4-hydroxy-4a-methyl-2-oxo-N-[4-(trifluoromethyl)-2-[6-(trifluoromethyl)pyridin-3-yl]phenyl]-6,7-dihydro-5H-pyrrolo[1,2-b]pyridazine-3-carboxamide; hydrochloride]	14%	64%
CN1[C@@H](C(C)(C)C)C(O)=C(C(=O)Nc2ccc(Cl)cc2-c2ccc(C(F)(F)F)nc2)C(=O)N1Cc1ccc(OCCN2CCOCC2)c(F)c1F [Example 267, (3S)-3-tert-Butyl-N-[4-chloro-2-[6-(trifluoromethyl)pyridin-3-yl]phenyl]-1-[[2,3-difluoro-4-(2-morpholin-4-ylethoxy)phenyl]methyl]-4-hydroxy-2-methyl-6-oxo-3H-pyridazine-5-carboxamide]	18%	71%
C[C@]12CCCN1N(Cc1ccc(C#CCN3CCOCC3)c(F)c1F)C(=O)C(C(=O)Nc1ccc(C(F)(F)F)cc1-c1ccc(C(F)(F)F)nc1)=C2O [Example 140, (4aR)-1-[[2,3-Difluoro-4-(3-morpholin-4-ylprop-1-ynyl)phenyl]methyl]-4-hydroxy-4a-methyl-2-oxo-N-[4-(trifluoromethyl)-2-[6-(trifluoromethyl)pyridin-3-yl]phenyl]-6,7-dihydro-5H-pyrrolo[1,2-b]pyridazine-3-carboxamide]	39%	77%
C[C@]12CCCN1N(Cc1cccc(Cl)c1F)C(=O)C(C(=O)Nc1cc(F)c(Br)c(F)c1)=C2O [Example 196, (4aR)-N-(4-Bromo-3,5-difluorophenyl)-1-[(3-chloro-2-fluorophenyl)methyl]-4-hydroxy-4a-methyl-2-oxo-6,7-dihydro-5H-pyrrolo[1,2-b]pyridazine-3-carboxamide]	35%	90%
C[C@]12CCCN1N(Cc1ccc(C#CCCCC(=O)O)c(F)c1F)C(=O)C(C(=O)Nc1ccc(C(F)(F)F)cc1-c1cc(C(F)(F)F)ncn1)=C2O [Example 129, 6-[4-[[(4aR)-4-Hydroxy-4a-methyl-2-oxo-3-[[4-(trifluoromethyl)-2-[6-(trifluoromethyl)pyrimidin-4-yl]phenyl]carbamoyl]-6,7-dihydro-5H-pyrrolo[1,2-b]pyridazin-1-yl]methyl]-2,3-difluorophenyl]hex-5-ynoic acid]	17%	63%
CN1N(Cc2ccc(OCCN3CCOCC3)c(F)c2F)C(=O)C(C(=O)Nc2ccc(C(F)(F)F)cc2-c2cc(C(F)(F)F)ncn2)=C(O)C12CCC2 [Example 317, 6-[[2,3-Difluoro-4-(2-morpholin-4-ylethoxy)phenyl]methyl]-9-hydroxy-5-methyl-7-oxo-N-[4-(trifluoromethyl)-2-[6-(trifluoromethyl)pyrimidin-4-yl]phenyl]-5,6-diazaspiro[3.5]non-8-ene-8-carboxamide]	22%	57%
(4aR)-1-[(2,3-Difluorophenyl)methyl]-4-hydroxy-N-[5-methyl-2-(trifluoromethyl)furan-3-yl]-2-oxo-4a-propyl-6,7-dihydro-5H-pyrrolo[1,2-b]pyridazine-3-carboxamide [Example 12]	–	27%
CN1N(Cc2ccc(OCCN3CCOCC3(C)C)c(F)c2F)C(=O)C(C(=O)Nc2ccc(C(F)(F)F)cc2-c2cc(C(F)(F)F)ncn2)=C(O)C12CCC2 [Example 341]	–	64%
